PMC12311865, “In Vitro Evaluation of the Potential Interactions of Zearalenone-14-sulfate and Zearalenone-14-glucuronide with Human Cytochrome P450 Enzymes, Organic Anion Transporting Polypeptides, and ATP-Binding Cassette Multidrug Transporters” (ACS Omega, 2025)
Read-outs that look alike come from different tables or passages of the source.

Key:
CYP1A2 = biological target: T1, CYP1A2 (Homo sapiens, UniProt P05177); conditions: each 20 μM; 0.2 vol % DMSO
T1 sequence (P05177 1-516): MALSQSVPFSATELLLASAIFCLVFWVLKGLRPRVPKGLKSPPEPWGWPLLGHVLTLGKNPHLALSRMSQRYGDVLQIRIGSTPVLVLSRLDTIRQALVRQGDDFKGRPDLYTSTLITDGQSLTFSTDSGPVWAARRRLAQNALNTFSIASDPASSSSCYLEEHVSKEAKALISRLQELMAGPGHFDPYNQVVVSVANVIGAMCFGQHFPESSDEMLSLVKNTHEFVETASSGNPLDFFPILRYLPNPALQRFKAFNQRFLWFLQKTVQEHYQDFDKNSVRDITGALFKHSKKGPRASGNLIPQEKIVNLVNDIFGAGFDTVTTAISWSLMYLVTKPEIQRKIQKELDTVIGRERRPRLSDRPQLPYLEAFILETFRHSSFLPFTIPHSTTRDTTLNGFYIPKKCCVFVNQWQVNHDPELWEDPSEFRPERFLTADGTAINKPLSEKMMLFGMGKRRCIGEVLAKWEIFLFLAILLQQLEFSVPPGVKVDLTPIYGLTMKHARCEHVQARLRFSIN
Protocol: We applied 10 mM stock solutions of mycotoxins (dissolved in DMSO), and the samples (including controls and positive controls) contained uniformly 0.2 vol % DMSO.

OATP1B3 = biological target: T2, OATP1B3 (Homo sapiens, UniProt Q9NPD5); assay: OATP1B3-mediated pyranine uptake in overexpressing A431 cells; assay type: cell-based
T2 construct: expressed in transfected cells; host or cells: A431
T2 sequence (Q9NPD5 1-702): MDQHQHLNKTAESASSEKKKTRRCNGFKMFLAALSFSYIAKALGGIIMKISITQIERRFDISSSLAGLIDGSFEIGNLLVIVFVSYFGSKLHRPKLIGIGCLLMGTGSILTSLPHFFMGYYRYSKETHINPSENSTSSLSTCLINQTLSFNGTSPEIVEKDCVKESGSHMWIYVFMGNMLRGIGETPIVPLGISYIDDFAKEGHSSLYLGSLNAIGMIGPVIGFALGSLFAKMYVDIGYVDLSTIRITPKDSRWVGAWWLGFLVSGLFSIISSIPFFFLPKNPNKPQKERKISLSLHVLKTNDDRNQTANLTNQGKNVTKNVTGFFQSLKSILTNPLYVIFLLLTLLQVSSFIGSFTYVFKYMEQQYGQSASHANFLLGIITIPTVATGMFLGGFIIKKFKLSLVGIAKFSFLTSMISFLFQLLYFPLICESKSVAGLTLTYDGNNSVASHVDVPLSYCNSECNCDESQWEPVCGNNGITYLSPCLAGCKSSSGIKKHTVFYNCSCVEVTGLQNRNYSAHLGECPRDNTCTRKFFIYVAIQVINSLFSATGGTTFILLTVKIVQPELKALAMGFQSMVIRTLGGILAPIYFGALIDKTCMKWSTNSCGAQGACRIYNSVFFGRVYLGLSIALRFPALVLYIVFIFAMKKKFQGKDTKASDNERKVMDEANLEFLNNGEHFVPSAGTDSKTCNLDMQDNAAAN
Protocol: (§1) The human epidermoid carcinoma cell (A431) overexpressing OATP1A2, OATP1B1, OATP1B3, or OATP2B1 transporters and their mock control cells were generated previously as described. , Cell culture was maintained in DMEM supplemented with 10% fetal bovine serum, 2 mM L-glutamine, 100 units/mL penicillin, and 100 μg/mL streptomycin at 37 °C and 5% CO2.
The inhibitory effects of mycotoxins (Z14S and Z14GA) were examined using indirect fluorescence assays, where pyranine and SR101 were used as fluorescent substrates. , A431 cells overexpressing OATP1A2, OATP1B1/3, or OATP2B1 and their mock-transfected controls were seeded at a density of 8 × 10^4 cells/well onto 96-well plates and incubated for 18–22 h prior to transport measurements. The next day, plated cells were washed three times with 200 μL of PBS (phosphate-buffered saline, pH 7.4) and preincubated with 50 μL of transport buffer (pH 5.5; 125 mM NaCl, 4.8 mM KCl, 1.2 mM CaCl2, 1.2 mM KH2PO4, 12 mM MgSO4, 25 mM MES, and 5.6 mM glucose) with or without increasing concentrations of the mycotoxins tested (0.001–20 μM) for 5 min at 37 °C. The transport inhibition measurements were initiated by adding 50 μL of transport buffer containing the proper fluorescent substrate SR101 (0.5 μM, OATP1A2) or pyranine (10 μM for OATP1B1 or 20 μM for OATP1B3 and OATP2B1). After 10 min (OATP1A2), 15 min (OATP1B1 and OATP2B1), or 30 min (OATP1B3) incubation, the transport was terminated by washing the cells three times with ice-cold PBS. […] Using an Enspire plate reader (PerkinElmer, Waltham, MA), the fluorescence was measured at excitation/emission wavelengths of 460/510 nm (pyranine) or 586/605 nm (SR101).
(§2) OATP-mediated transport was obtained by subtracting the activity of the mock control cells from the activity of the OATP-expressing cells. The transport activity (%) of the OATPs was calculated by comparing the fluorescence signal obtained in the absence of the compounds tested (set to 100%).

OATP2B1 = biological target: T3, OATP2B1 (Homo sapiens, UniProt O94956); assay: OATP2B1-mediated pyranine uptake in overexpressing A431 cells; assay type: cell-based
T3 construct: expressed in transfected cells; host or cells: A431
T3 sequence (O94956 1-709): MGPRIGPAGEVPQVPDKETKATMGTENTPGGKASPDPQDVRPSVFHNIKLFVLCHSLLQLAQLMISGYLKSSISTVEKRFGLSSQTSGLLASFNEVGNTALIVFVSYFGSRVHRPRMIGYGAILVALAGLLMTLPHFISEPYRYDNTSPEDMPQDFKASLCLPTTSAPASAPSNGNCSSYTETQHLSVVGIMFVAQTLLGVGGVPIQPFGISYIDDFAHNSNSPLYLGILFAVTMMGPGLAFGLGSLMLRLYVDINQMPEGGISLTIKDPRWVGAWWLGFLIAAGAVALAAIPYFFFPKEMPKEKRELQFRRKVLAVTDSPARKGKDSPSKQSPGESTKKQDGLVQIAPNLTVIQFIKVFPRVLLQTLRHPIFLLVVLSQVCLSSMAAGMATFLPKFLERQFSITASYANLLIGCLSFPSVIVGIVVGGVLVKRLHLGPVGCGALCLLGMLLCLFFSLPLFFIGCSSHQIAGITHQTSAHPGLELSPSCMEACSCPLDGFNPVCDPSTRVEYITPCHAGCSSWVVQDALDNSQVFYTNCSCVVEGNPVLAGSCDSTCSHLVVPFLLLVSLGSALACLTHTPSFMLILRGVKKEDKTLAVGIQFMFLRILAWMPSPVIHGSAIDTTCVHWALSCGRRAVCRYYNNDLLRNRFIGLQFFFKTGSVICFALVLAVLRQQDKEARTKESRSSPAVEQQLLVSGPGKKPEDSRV
Protocol: as §1
The inhibitory effects of mycotoxins (Z14S and Z14GA) were examined using indirect fluorescence assays, where pyranine and SR101 were used as fluorescent substrates. , A431 cells overexpressing OATP1A2, OATP1B1/3, or OATP2B1 and their mock-transfected controls were seeded at a density of 8 × 10^4 cells/well onto 96-well plates and incubated for 18–22 h prior to transport measurements. The next day, plated cells were washed three times with 200 μL of PBS (phosphate-buffered saline, pH 7.4) and preincubated with 50 μL of transport buffer (pH 5.5; 125 mM NaCl, 4.8 mM KCl, 1.2 mM CaCl2, 1.2 mM KH2PO4, 12 mM MgSO4, 25 mM MES, and 5.6 mM glucose) with or without increasing concentrations of the mycotoxins tested (0.001–20 μM) for 5 min at 37 °C. The transport inhibition measurements were initiated by adding 50 μL of transport buffer containing the proper fluorescent substrate SR101 (0.5 μM, OATP1A2) or pyranine (10 μM for OATP1B1 or 20 μM for OATP1B3 and OATP2B1). After 10 min (OATP1A2), 15 min (OATP1B1 and OATP2B1), or 30 min (OATP1B3) incubation, the transport was terminated by washing the cells three times with ice-cold PBS. Regarding the individual OATP assays, we applied different incubation times to keep the substrate uptake in the linear range, , avoiding substrate depletion or saturation effects, as it is indispensable for the accurate assessment. Using an Enspire plate reader (PerkinElmer, Waltham, MA), the fluorescence was measured at excitation/emission wavelengths of 460/510 nm (pyranine) or 586/605 nm (SR101).
as §2

[1] = 20 μM, pyranine substrate, A431 cells

SMILES | inhibition of CYP1A2 activity (CYP1A2) | IC50 (OATP1B3; pyranine 20 μM, 30 min, A431 cells, read-out: IC50 for OATP1B3) | IC50 (OATP2B1; pyranine 20 μM, 15 min, A431 cells, read-out: IC50 for OATP2B1) | IC50 (OATP1B3) | decrease in OATP1B3 transport activity (OATP1B3; [1]) | IC50 (OATP2B1) | effect on OATP2B1-mediated dye uptake (OATP2B1; 5 μM, pyranine substrate) | decrease in OATP2B1 transport activity (OATP2B1; [1]) | stronger inhibition on OATP2B1 compared to ZEN (OATP2B1; ratio of IC50 values vs ZEN)
C[C@H]1CCCC(=O)CCC/C=C/c2cc(O[C@@H]3O[C@H](C(=O)O)[C@@H](O)[C@H](O)[C@H]3O)cc(O)c2C(=O)O1 [Z14GA, Zearalenone-14-glucuronide] | no effects | > 20000 nM | 1100 nM | – | – | – | – | – | –
C[C@H]1CCCC(=O)CCC/C=C/c2cc(OS(=O)(=O)O)cc(O)c2C(=O)O1 [Z14S, zearalenone-14-sulfate] | did not influence | – | – | 2300 nM | 80–100% | 340 nM | completely abolished | 80–100% | approximately 7 fold
